Data from patent US8247596B2 (Sumitomo Chemical Company, Limited, priority 2007, dated 2012).

Columns and labels:
Type in all cases: in vivo
Musca domestica = assay: Test Example 4: filter paper/sucrose bait test on Musca domestica; settings: 24 h, read-out: pest death rate
Method: A formulation of any one of the present compounds (1), (4), (5), (7), (11), (12), (13), (18t), (18c), (19), (20), (21), (22), (24), (25t), (25c), (26t), (26c), (27), (29), (30), (31), (32), (33), (34), (35), (40), (41), (43), (49), (50) and (55) obtained according to Formulation Example 36 was diluted with water so that the active ingredient concentration was 500 ppm to obtain a test solution.
(§1) A filter paper having a diameter of 5.5 cm was spread on the bottom of a polyethylene cup having a diameter of 5.5 cm and 0.7 ml of the test solution was added dropwise onto the filter paper. As a bait 30 mg of sucrose was uniformly placed on the filter paper. Into the polyethylene cup, 10 female imagoes of Musca domestica were released and the cup was sealed with a lid. After 24 hours, the number of surviving Musca domestica was examined and the death rate of the pest was calculated.

Blattalla germanica = assay: Test Example 5: filter paper/sucrose bait test on Blattalla germanica; settings: for pest or weed control at 500 ppm: 144 h, read-out: pest death rate
Method: A formulation of any one of the present compounds (4), (5), (7), (12), (13), (18t), (18c), (22), (25t), (25c), (26t), (26c), (29), (30), (31), (32), (33), (34), (40), (41), (43), (49) and (55) obtained according to Formulation Example 36 was diluted with water so that the active ingredient concentration was 500 ppm to obtain a test solution.
as §1, with “2 male” for “10 female”, “Blattalla germanica” for “Musca domestica”, “6 days,” for “24 hours,”

Culex pipiens pallens = assay: Test Example 6: larvae of Culex pipiens pallens in treated water; settings: 24 h, read-out: pest death rate
Method: A formulation of any one of the present compounds (7), (11), (12), (13), (17), (18t), (18c), (22), (24), (25t), (25c), (26t), (26c), (27), (29), (33), (34), (35), (36), (38), (40), (41), (43), (47), (49), (50) and (55) obtained according to Formulation Example 36 was diluted with water so that the active ingredient concentration was 500 ppm to obtain a test solution.
To 100 mL of ion-exchanged water, 0.7 ml of the test solution was added (active ingredient concentration: 3.5 ppm). Into the solution, 20 last-instar larvae of Culex pipiens pallens were released. One day after, the number of surviving Culex pipiens pallens was examined and the death rate of the pest was calculated.

[1] = test system: Haemaphysalis longicornis; assay: Test Example 7: treated filter paper pouch test on ticks; settings: filter paper treated with 100 mg/m^2, non-blood-sucking nymphal ticks, 10 ticks/group, two days after; for pest or weed control at 100 mg/m2: Haemaphysalis longicornis, 48 h, read-out: pest death rate
Method: Five milligrams of any one of the present compounds (4), (7), (18t), (22), (25t), (26t), (29), (30), (31), (32), (33), (34), (35), (40), (41), (42), (43), (44) and (55) was dissolved in 10 mL of acetone. One milliliter of the acetone solution was uniformly applied on one side of a filter paper (TOYO No. 2; 5×10 cm), so that the filter paper having a surface area of 50 cm^2 was treated with 100 mg/m^2 of the present compound. After drying, the filter paper was folded in two and its edges were clipped to make a pouch. Test ticks (non-blood-sucking nymphal ticks, Haemaphysalis longicornis, 10 ticks/group) were put into the pouch, and the pouch was sealed with clips. Two days after, the number of surviving ticks was examined and the death rate was calculated.

Structure (SMILES)	pest or weed control at 500 ppm (Musca domestica)	pest or weed control at 500 ppm (Blattalla germanica)	pest or weed control at 3.5 ppm (Culex pipiens pallens)	pest or weed control at 100 mg/m2 [1]	pest death rate [1]	pest death rate (Blattalla germanica; 500 ppm, 0.7 ml on filter paper, 2 male imagoes of Blattalla germanica, after 6 days)
C#CC1=CCC(CS(=O)(=O)CCC(F)(F)F)CC1 (centres unmarked)	≥ 90%	100%	≥ 95%	90%	–	–
FC(F)(F)CCSCC1CCC2(CC1)OCCO2 [present compound (1)]	≥ 90%	–	–	–	–	–
O=S(=O)(CCC(F)(F)F)CC1CCC(F)(F)CC1 [present compound (4), 1,1-difluoro-4-(3,3,3,-trifluoropropylsulfonylmethyl)cyclohexanone]	≥ 90%	100%	–	90%	–	–
O=S(=O)(CCC(F)(F)F)CC1CC=C(F)CC1 (centres unmarked) [present compound (5)]	≥ 90%	100%	–	–	–	–
C#CC1(F)CCC(CS(=O)(=O)CCC(F)(F)F)CC1 (centres unmarked) [present compound (7)]	≥ 90%	100%	≥ 95%	90%	–	–
COC(=O)C(C1CCC(F)(F)CC1)S(=O)(=O)CCC(F)(F)F (centres unmarked) [present compound (11), methyl 2-(4,4-difluorocyclohexyl)-2-(3,3,3-trifluoropropylsulfonyl)acetate]	≥ 90%	–	≥ 95%	–	–	–
COC(=O)C(F)(C1CCC(F)(F)CC1)S(=O)(=O)CCC(F)(F)F (centres unmarked) [present compound (12), methyl 2-(4,4-difluorocyclohexyl)-2-fluoro-2-(3,3,3-trifluoropropylsulfonyl)acetate]	≥ 90%	100%	≥ 95%	–	–	–
NC(=O)C(F)(C1CCC(F)(F)CC1)S(=O)(=O)CCC(F)(F)F (centres unmarked) [present compound (13), 2-(4,4-difluorocyclohexyl)-2-fluoro-2-(3,3,3-trifluoropropylsulfonyl)acetamide]	≥ 90%	100%	≥ 95%	–	–	–
O=S(=O)(CCC(F)(F)F)CC1CCC(C=C(Br)Br)CC1 (centres unmarked) [present compound (17), 1-(2,2-dibromovinyl)-4-(3,3,3-trifluoropropylsulfonylmethyl)cyclohexane]	–	–	≥ 95%	–	–	–
C#CC1CCC(CS(=O)(=O)CCC(F)(F)F)CC1 (centres unmarked) [present compound (18t), 1-ethynyl-4-(3,3,3-trifluoropropylsulfonylmethyl)cyclohexane]	≥ 90%	100%	≥ 95%	90%	–	–
COC(=O)CCC#CC1CCC(CS(=O)(=O)CCC(F)(F)F)CC1 (centres unmarked) [present compound (19), 5-[4-(3,3,3-trifluoropropylsulfonylmethyl)cycohexanyl]-4-pentynic acid methyl ester]	≥ 90%	–	–	–	–	–
N#CC1CCC(CS(=O)(=O)CCC(F)(F)F)CC1 (centres unmarked) [present compound (20), 1-cyano-4-(3,3,3-trifluoropropylsulfonylmethyl)cyclohexane]	≥ 90%	–	–	–	–	–
CON=C1CCC(CS(=O)(=O)CCC(F)(F)F)CC1 (centres unmarked) [present compound (21), 4-(3,3,3-trifluoropropylsulfonylmethyl)-cyclohexanone O-methyloxime]	≥ 90%	–	–	–	–	–
FC(F)(F)CCSCC1CCC(C=C(Br)Br)CC1 (centres unmarked) [present compound (24), 1-(2,2-dibromovinyl)-4-(3,3,3-trifluoropropylthiomethyl)cyclohexane]	≥ 90%	–	≥ 95%	–	–	–
C#CC1CCC(CSCCC(F)(F)F)CC1 (centres unmarked) [present compound (25c)]	≥ 90%	100%	≥ 95%	–	–	–
N#CC(C1CCC2(CC1)OCCO2)S(=O)(=O)CCC(F)(F)F (centres unmarked) [present compound (27), 2-(1,4-dioxaspiro[4.5]dec-8-yl)-2-(3,3,3-trifluoropropylsulfonyl)acetonitrile]	≥ 90%	–	≥ 95%	–	–	–
C#CC1(O)CCC(C(C#N)S(=O)(=O)CCC(F)(F)F)CC1 (centres unmarked) [present compound (30), 2-(4-ethynyl-4-hydroxycyclohexyl)-2-(3,3,3-trifluoropropylsulfonyl)acetonitrile]	≥ 90%	100%	–	90%	–	–
C#CC1(F)CCC(C(C#N)S(=O)(=O)CCC(F)(F)F)CC1 (centres unmarked) [present compound (31), 2-(4-ethynyl-4-fluorocyclohexyl)-2-(3,3,3-trifluoropropylsulfonyl)acetonitrile]	≥ 90%	100%	–	90%	–	–
C#CC1CCC=CC1C(C#N)S(=O)(=O)CCC(F)(F)F (centres unmarked) [present compound (32), 2-(4-ethynyl-cyclohexen-3-yl)-2-(3,3,3-trifluoropropylsulfonyl)acetonitrile]	≥ 90%	100%	–	90%	–	–
CCON=C1CCC(C(C#N)S(=O)(=O)CCC(F)(F)F)CC1 (centres unmarked) [present compound (35), 2-[4-(ethoxyimino)cyclohexyl]-2-(3,3,3-trifluoropropylsufonyl)acetonitrile]	–	–	–	–	90%	–
CC(C)(C)ON=C1CCC(C(C#N)S(=O)(=O)CCC(F)(F)F)CC1 (centres unmarked) [present compound (36), 2-[4-(t-butoxyimino)cyclohexyl]-2-(3,3,3-trifluoropropylsulfonyl)acetonitrile]	–	–	≥ 95%	–	–	–
N#CC(C1CCC(=NOCc2ccccc2)CC1)S(=O)(=O)CCC(F)(F)F (centres unmarked) [present compound (38), 2-[4-(O-benzylhydroxylimino)cyclohexyl]-2-(3,3,3-trifluoropropylsulfonyl)acetonitrile]	–	–	≥ 95%	–	–	–
CCCC(C#N)(C1CCC(=NOC)CC1)S(=O)(=O)CCC(F)(F)F (centres unmarked) [present compound (42), 2-[4-(methoxyimino)cyclohexyl]-2-(3,3,3-trifluoropropylsulfonyl)pentanenitrile]	–	–	–	90%	–	–
C=CC(C)C(C#N)(C1CCC(=NOC)CC1)S(=O)(=O)CCC(F)(F)F (centres unmarked) [present compound (43), 2-[4-(methoxyimino)cyclohexyl]-3-methyl-2-(3,3,3-trifluoropropylsufonyl)-4-pentenenitrile]	–	–	–	–	90%	100%
C#CC(C)C(C#N)(C1CCC(=NOC)CC1)S(=O)(=O)CCC(F)(F)F (centres unmarked) [present compound (44), 2-[4-(methoxyimino)cyclohexyl]-3-methyl-2-(3,3,3-trifluoropropylsulfonyl)-4-pentynenitrile]	–	–	–	90%	–	–
N#CC(C1CCCCC1)S(=O)(=O)CCC(F)(F)F (centres unmarked) [present compound (47), 2-cyclohexyl-2-(3,3,3-trifluoropropylsulfonyl)acetonitrile]	–	–	≥ 95%	–	–	–
CC1CCC(C(C#N)S(=O)(=O)CCC(F)(F)F)CC1 (centres unmarked) [present compound (49), 2-(4-methylcyclohexyl)-2-(3,3,3-trifluoropropylsulfonyl)acetonitrile]	≥ 90%	100%	≥ 95%	–	–	–
CC1(C)CCC(C(C#N)S(=O)(=O)CCC(F)(F)F)CC1 (centres unmarked) [present compound (50), 2-(4,4-dimethylcyclohexyl)-2-(3,3,3-trifluoropropylsulfonyl)acetonitrile]	≥ 90%	–	≥ 95%	–	–	–
